These results are taken from patent US10227323B2, “Glucosylceramide synthase inhibitors for the treatment of diseases” (BIOMARIN PHARMACEUTICAL INC., priority 2013, dated 2019).

This assay addresses T1, GCS (Canis lupus familiaris, UniProt A0A8I3MXG6).
T1 sequence (A0A8I3MXG6 1-394): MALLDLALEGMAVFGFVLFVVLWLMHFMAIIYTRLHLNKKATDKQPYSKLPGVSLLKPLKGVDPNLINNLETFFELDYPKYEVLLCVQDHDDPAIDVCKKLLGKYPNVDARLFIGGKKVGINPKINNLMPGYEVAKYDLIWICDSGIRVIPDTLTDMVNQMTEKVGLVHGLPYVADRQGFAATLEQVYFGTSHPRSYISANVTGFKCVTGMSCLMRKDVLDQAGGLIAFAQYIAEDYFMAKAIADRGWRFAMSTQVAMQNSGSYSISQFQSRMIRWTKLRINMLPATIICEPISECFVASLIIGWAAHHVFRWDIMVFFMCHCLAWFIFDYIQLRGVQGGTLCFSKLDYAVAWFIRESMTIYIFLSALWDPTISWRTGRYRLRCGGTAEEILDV
Description: Assay 1: GCS Enzymatic Assay (MDCK cell lysate, C6-NBD-Ceramide, LC/MS). It is filed as biochemical, canine. The note with it: Table 2; data without asterisk; read-out: IC50 (nM) generated from Assay 1. In a few lines: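 LC/MS/MS measurement of glucosylceramide and NBD-ceramide after a 1 h, 37 °C reaction with 100 μM UDP-glucose and 10 μM C6-NBD-ceramide gave IC50s or percent inhibition.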

Some results are limits rather than exact numbers.

In general, IC50 refers to the concentration needed to halve the response being measured. On to `Cc1cc(C(=O)C(=O)N[C@H](CN2CCCC2)[C@H](O)c2ccc(OC3CC3)c(Cl)c2)ccc1-c1ccc(F)cc1` [Example 298, N-((1R,2R)-1-(3-chloro-4-cyclopropoxyphenyl)-1-hydroxy-3-(pyrrolidin-1-yl)propan-2-yl)-2-(4′-fluoro-2-methyl-[1,1′-biphenyl]-4-yl)-2-oxoacetamide], for which the IC50 is under 50 nM.

With `Cc1cc(C(=O)C(=O)N[C@H](CN2CCCC2)[C@H](O)c2cc(F)c3c(c2)OCCO3)ccc1-c1ccc(F)cc1` [Example 299, N-((1R,2R)-1-(8-fluoro-2,3-dihydrobenzo[b][1,4]dioxin-6-yl)-1-hydroxy-3-(pyrrolidin-1-yl)propan-2-yl)-2-(4′-fluoro-2-methyl-[1,1′-biphenyl]-4-yl)-2-oxoacetamide], the IC50 is under 50 nM.

Regarding `O=C(N[C@H](CN1CCC1)[C@H](O)c1cc(Cl)c2c(c1)OCCO2)C(=O)c1ccc(-c2ccc(F)cc2)cc1` [Example 300, N-((1R,2R)-3-(azetidin-1-yl)-1-(8-chloro-2,3-dihydrobenzo[b][1,4]dioxin-6-yl)-1-hydroxypropan-2-yl)-2-(4′-fluoro-[1,1′-biphenyl]-4-yl)-2-oxoacetamide], the IC50 was under 50 nM.

In the case of `N#Cc1ccc(-c2ccc(C(=O)C(=O)N[C@H](CN3CCCC3)[C@H](O)c3ccc(OC4CC4)c(Cl)c3)cc2)cc1` [Example 301, N-((1R,2R)-1-(3-chloro-4-cyclopropoxyphenyl)-1-hydroxy-3-(pyrrolidin-1-yl)propan-2-yl)-2-(4′-cyano-[1,1′-biphenyl]-4-yl)-2-oxoacetamide], the IC50 is under 50 nM.

On to `O=C(N[C@H](CN1CCCC1)[C@H](O)c1ccc(OC2CC2)c(Cl)c1)C(=O)c1ccc2oc3ccc(Br)cc3c2c1` [Example 302, 2-(8-bromodibenzo[b,d]furan-2-yl)-N-((1R,2R)-1-(3-chloro-4-cyclopropoxyphenyl)-1-hydroxy-3-(pyrrolidin-1-yl)propan-2-yl)-2-oxoacetamide], for which the IC50 is under 50 nM.

As to `[2H]C([2H])(C(=O)N[C@H](CN1CCCC1)[C@H](O)c1ccc(OC2CC2)c(Cl)c1)c1ccc(-c2ccc(F)cc2)cc1` [Example 303, N-[(1R,2R)-2-(3-chloro-4-cyclopropoxyphenyl)-2-hydroxy-1-(pyrrolidinylmethyl)ethyl]-2-[4-(4-fluorophenyl)phenyl]acetamide], the IC50 was under 50 nM.

Turning to `O=C(N[C@H](CN1CCCC1)[C@H](O)c1ccc(OC2CC2)c(Cl)c1)C(=O)c1ccc2nn(Cc3ccc(F)cc3)cc2c1` [Example 304, N-((1R,2R)-1-(3-chloro-4-cyclopropoxyphenyl)-1-hydroxy-3-(pyrrolidin-1-yl)propan-2-yl)-2-(2-(4-fluorobenzyl)-2H-indazol-5-yl)-2-oxoacetamide], the IC50 is under 50 nM.

With `O=C(N[C@H](CN1CCCC1)[C@H](O)c1cc(F)c2c(c1)OCCO2)C(=O)c1ccc2nn(Cc3ccc(F)cc3)cc2c1` [Example 305, N-((1R,2R)-1-(8-fluoro-2,3-dihydrobenzo[b][1,4]dioxin-6-yl)-1-hydroxy-3-(pyrrolidin-1-yl)propan-2-yl)-2-(2-(4-fluorobenzyl)-2H-indazol-5-yl)-2-oxoacetamide], the IC50 was under 50 nM.

On to `CC(C)n1ncc2ccc(C(=O)C(=O)N[C@H](CN3CCCC3)[C@H](O)c3ccc(OC4CC4)c(Cl)c3)cc21` [Example 306, N-((1R,2R)-1-(3-chloro-4-cyclopropoxyphenyl)-1-hydroxy-3-(pyrrolidin-1-yl)propan-2-yl)-2-(1-isopropyl-1H-indazol-6-yl)-2-oxoacetamide], for which the concentration for half-maximal inhibition (IC50) was under 50 nM.

`CC(C)n1ncc2ccc(C(=O)C(=O)N[C@H](CN3CCCC3)[C@H](O)c3cc(F)c4c(c3)OCCO4)cc21` [Example 307, N-((1R,2R)-1-(8-fluoro-2,3-dihydrobenzo[b][1,4]dioxin-6-yl)-1-hydroxy-3-(pyrrolidin-1-yl)propan-2-yl)-2-(1-isopropyl-1H-indazol-6-yl)-2-oxoacetamide]: the IC50 was under 50 nM.
